According to US8202696B2, “Means for use in treating diseases correlated with or caused by non-physiological levels of microtubule-associated PP2Ac” (Max-Planck-Gessellschaft zur Forderung der Wissenschaften …, priority 2002, dated 2012):
“Also recorded” adds a separate entry of the source.

Assays:
[1] = tested on: Gli3; assay: Localization of overexpressed GFP-tagged Gli3 in HeLa cells; format: cell-based; conditions: GFP-Gli3 plus B-Box overexpressing HeLa cells
Description: 1×10^5 HELA cells per well of a 6-well plate were transfected with Qiagen Polyfect transfection reagent according to the manufacturer's instructions. The ratio of the amount of DNA to the amount of polyfect transfection reagent was 3 μg DNA/10 μl Polyfect. Constructs used for expression in HELA were the following: GFP-GLI3 (aa 18-1549), GLI3-GFP (aa 1-1522), MYC-GLI3 (aa 18-1596), FLAG-GLI3 (aa18-1596), MYC-B-BOX1 (aa 110-167 of the MID1 protein), ALPHA4-V5 (aa 1-339). 24 h after transfection immunofluorescence was performed. GFP-constructs were treated as described in Schweiger et al., 1999. Immunofluorescence with MYC-tagged and FLAG-tagged constructs was done according to Trockenbacher et al., 2001. FLAG-tagged constructs were detected with anti-FLAG-antibody diluted 1:500, the secondary antibody FITC-antimouse was diluted 1:1000. For MYC-tagged constructs anti-MYC-antibody 1:300 and CY3-antirabbit 1:1000 were used. […]
Overexpressed Gli3 is predominantly localized in the nucleus (FIG. 10, top left).

[2] = tested on: PP2A; assay: hFused phosphorylation in vitro, cytosol incubated with or without fostriecin, Western blot; format: biochemical; conditions: fostriecin 500 nM, 4 h, 30° C.
Description: 8×10^5 cells were transfected with hFused-V5 (aa 1-1335) using Qiagen Polyfect transfection reagent according to the manufacturer's instructions. Cytosol of hFused-V5 overexpressing cells was incubated for 4 h in the presence or absence of fostriecin (500 nM) at 30° C. Proteins (200 μg protein per lane) were separated on a 6% SDS-gel, blotted on PVDF-membranes and incubated with anti-V5-antibody (1:3000). Secondary HRP-antimouse-antibody was diluted 1:2000.
Fostriecin is a highly specific inhibitor of PP2A activity.
Cytosol of V5-tagged hFused-overexpressing cells was incubated for 4 h in the absence (line1) and presence (line2) of fostriecin at 30° C. Subsequently proteins were separated on an SDS-Page, blotted and incubated with an anti-V5 antibody.

[3] = tested on: proteasome; assay: Polyubiquitinated proteins in the MID1 immune complex, COS7 cells; format: cell-based; conditions: MID1-myc, anti-myc precipitate
Description: Immunoprecipitation, western blotting and immunofluorescence. For COS7 cells, we lysed in IP1 buffer 8×10^6 cells transfected with pBudCE4 vector carrying the respective cDNAs. After preclearing the lysate with 50 μl protein A-agarose (slurry), we incubated supernatants with 2 μg anti-V5 overnight at 4° C. and then for 2 h with 75 μl (slurry) protein A-agarose. After three washes in IP1 buffer, we eluted the proteins with 1× Laemmli buffer at 95° C. MID1-V5 expression was optimal 48 h after doxycyclin removal from 293 tet-off cell lines. We then lysed cells in IP1 buffer and carried out immunoprecipitation with 2 μg anti-V5. We boiled proteins in 1×SDS-PAGE buffer, separated them on 10% and 12% SDS gels, blotted on PVDF membranes (Roche) and blocked and incubated with the respective primary antibody according to the manufacturer's instructions. Because several RING-finger proteins interact with target proteins and thereby elicit their ubiquitin-dependent degradation^8-11, we examined interaction of MID1 with polyubiquitinated proteins. We transfected COS7 cells either with MID1 cDNA or, as a control, with cDNA encoding protein kinase C (PKC), each tagged with a C-terminal V5 epitope or an empty vector, respectively. We treated the cells with 25 μM of LLnL, a proteasome inhibitor, 24 h after transfection to enrich for ubiquitinated proteins. […]

[4] = target: T1, α4 (Homo sapiens, UniProt P78318); assay: Yeast two-hybrid interaction of MID1 constructs with α4; format: binding
T1 construct: expressed in transfected cells; host or cells: L40 yeast strain
T1 sequence (P78318 1-339): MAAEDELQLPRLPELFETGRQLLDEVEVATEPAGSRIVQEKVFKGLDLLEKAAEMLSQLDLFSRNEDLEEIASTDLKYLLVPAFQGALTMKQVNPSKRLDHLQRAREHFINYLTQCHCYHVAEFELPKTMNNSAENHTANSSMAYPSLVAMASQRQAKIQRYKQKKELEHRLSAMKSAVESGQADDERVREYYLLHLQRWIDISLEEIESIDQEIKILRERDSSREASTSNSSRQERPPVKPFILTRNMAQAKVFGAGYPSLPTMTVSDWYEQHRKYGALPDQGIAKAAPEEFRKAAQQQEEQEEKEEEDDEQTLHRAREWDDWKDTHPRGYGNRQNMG
Description: Yeast two-hybrid screening. For yeast two-hybrid screening, we cloned full-length MID1 cDNA into the pBTM116 vector. We then cotransfected this with a human fetal brain cDNA Matchmaker library in the pGAD10 vector (Clontech) into the L40 yeast strain. We plated the transformants on synthetic medium lacking histidine, leucine and tryptophan (his^− leu^− trp^−) and containing 3-amino-1,2,4, triazole, and incubated the plates at 30° C. for 5 days. We assayed his-positive colonies for β-galactosidase activity with a filter assay^47. We isolated plasmid DNA from β-galactosidase-positive clones and cotransfected this again into L40 yeast with MID1-pBTM116 and controls. We selected plasmids that produced growth on selective plates only in combination with MID1-pBTM116, which were assumed to code for MID1 interactors, and sequenced them.
Activity of β-galactosidase in yeast liquid cultures. We assayed cells for β-galactosidase activity by the o-nitrophenyl-β-D-galactopyranoside (ONPG) method^47.
MID1 is a multidomain protein harboring a RING finger, two B-boxes, a coiled-coil region, a fibronectin type III domain and a B30.2 domain^3—all of which are candidate regions for specific protein-protein interactions. To clarify which domain specifically binds α4, we tested several deletion mutants of MID1 for interaction with α4 in the yeast two-hybrid system. […]

[5] = tested on: tau protein; assay: Tau-1 and pan-Tau immunofluorescence in transfected postnatal sympathetic neurons; format: cell-based, rat; conditions: compared to non-transfected neurons = 100%, two days after transfection
Description: Peripheral sympathetic neurons were obtained from postnatal day 1-3 rats. […] Following mechanical dissociation the cell suspension was filtered through a 40 μm nylon mesh and seeded at 6 SCGs per well into uncoated Falcon dishes for preplating purposes. After 4 hours neurons were transferred into glass floor dishes (Willco Wells B.V., gwst 3522, 3.8 cm^2 area/dish) coated with poly-D-lysine/laminin. Neurons were maintained in RPMI medium containing antibiotics, N2 additive (Invitrogen) and 100 ng/ml nerve growth factor (NGF; Sigma) at 37° C. in a humidified atmosphere with 5% CO2.
Neurons were transfected 2 hours after seeding applying the biolistic approach. This method uses a hand held gun to bombard dissociated neurons at high velocity with micron-size gold particles loaded with DNA. The coating of gold particles with DNA was achieved using a modification of the manufacturer's instructions (Bio-Rad Laboratories). For preparation of 35 cartridges 25 mg gold particles (1.6 μm diameter) were suspended in 50 μl of 0.05 M spermidine. After vortexing and sonication for 5 seconds, 50 μg plasmid DNA dissolved in 50 μl TE buffer was added (for co-transfection experiments, 80 μg were used, i.e., 40 μg Plasmid I+40 μg Plasmid 2). The amount of gold particles and DNA corresponds to a microcarrier loading quantity (MLQ) of about 0.7 (mg/cartridge) and to a DNA loading ratio (DLR) of 2 (μg/mg) for single transfection experiments. DNA, spermidine and gold were then mixed for 5 sec in a variable speed vortexer. At low vortexing speed, 50 μl 1 M CaCl2 was added dropwise to the mixture for association of DNA with the gold particles followed by precipitation for 10 min at room temperature. The supernatant was removed and the pellet rinsed with 800 μl of 100% ethanol. Washing was repeated two times with centrifugation steps at 3000 g between each wash. […]
A fully motorized Zeiss Axiovert 100M microscope equipped for inverted fluorescence was used for visualization of fluorescent neurons. […]

In the case of `C[C@@](O)(/C=C/[C@H]1CC=CC(=O)O1)[C@@H](C[C@@H](O)\C=C/C=C\C=C\CO)OP(=O)(O)O` [fostriecin], the “Gli3 localization in presence of B-Box overexpression” value [1] is reported as “reverse the observed effect”, the “Phosphorylated hFused-band on Western blot” value [2] is reported as “clear enrichment of the phosphorylated hFused-band” and the “Ratio between phosphorylated and dephosphorylated hFused-form” value ([2]; cytosol of V5-tagged hFused-overexpressing cells, control without fostriecin 1.8×) is reported as 18 ×.
In the case of `CC(=O)N[C@@H](CSC(=O)[C@]1([C@@H](O)C(C)C)NC(=O)[C@H](C)[C@@H]1O)C(=O)O` [lactacystin], the “High-molecular weight proteins in MID1-myc-containing precipitates” value [3] is reported as “enrichment of high-molecular weight proteins”.
“MID2: protein highly similar in amino acid sequence (83%) to MID1 (PTTAMSSERIACQFCEQDPPRDAVKTCITCEVSYCDRCLRATHPNKKPFTSHRLVEPV; listed as Homo sapiens)” was tested, and the “Interaction with α4” value [4] was “binds α4”.
“inactive mutated form of the B-BOX1: Bbox1 with exchange of alanine 130 to threonine, abolishes association with α4 (ANTMTSAEKVLCQFCDQDPAQDTVKTCVTCEVSYCDECLKATHPNKKPFTGHRLIEPI) [reference compound]” was tested, and the “Tau-1 immunoreactivity (dephosphorylated tau)” value [5] was “does not show this effect; also recorded: do not exhibit different fluorescent levels”.
